Consider 25 molecules from patent US12091399B2, “Phenyltetrazole derivatives as plasma kallikrein inhibitors” (Boehringer Ingelheim International GmbH, priority 2018, dated 2024).

Sequence of Human PKK (P03952 391-638): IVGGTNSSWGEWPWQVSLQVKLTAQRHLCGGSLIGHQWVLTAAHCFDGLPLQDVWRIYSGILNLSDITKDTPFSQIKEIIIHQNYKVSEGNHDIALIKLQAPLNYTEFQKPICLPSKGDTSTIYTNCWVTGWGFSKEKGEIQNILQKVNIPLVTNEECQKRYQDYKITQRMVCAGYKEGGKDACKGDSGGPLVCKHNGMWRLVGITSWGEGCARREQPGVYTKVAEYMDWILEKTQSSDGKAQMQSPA
Sequence of Human PKK (P03952 20-390 partner): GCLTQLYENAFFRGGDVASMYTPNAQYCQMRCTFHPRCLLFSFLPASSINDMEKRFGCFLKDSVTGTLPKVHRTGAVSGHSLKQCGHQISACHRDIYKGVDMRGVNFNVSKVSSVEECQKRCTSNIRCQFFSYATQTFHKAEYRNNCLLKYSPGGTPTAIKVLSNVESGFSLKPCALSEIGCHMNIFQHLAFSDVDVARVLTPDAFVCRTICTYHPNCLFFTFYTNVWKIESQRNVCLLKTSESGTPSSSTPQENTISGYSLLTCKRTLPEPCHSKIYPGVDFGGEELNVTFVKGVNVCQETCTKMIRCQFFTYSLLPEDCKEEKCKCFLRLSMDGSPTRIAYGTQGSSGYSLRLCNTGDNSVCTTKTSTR

The target of the assay is Human PKK (Homo sapiens (Human), UniProt P03952). Briefly: Inhibition of PKK using an endpoint assay (human PKK). It counts as biochemical. The settings on record: 1 h at rt, 0.10 μM H-Pro-Phe-Arg-AMC. The procedure:
The ability of compounds of formula (I) to inhibit plasma kallikrein (PKK), Factor XIIa (FXIIa), Factor XIa (FXIa), Factor Xa (FXa), Factor IIa (alpha-thrombin; FIIa), plasmin, trypsin, tissue kallikrein 1 (TK1), Factor Vila (FVIIa), or FVIIa complexed with Tissue Factor, phospholipids and CaCl2) (FVIIa/TF/PL/CaCl2) was determined using the following biochemical assays in assay buffer (100 mM Tris, 150 mM NaCL, adjusted to a pH of 7.8 with HCl, and containing 0.1% (w/v) BSA and 0.05% (v/v) Tween20) in the presence of 1% (v/v) DMSO:
Subsequently, PPACK II (Calbiochem) was added as a stop solution to achieve a final concentration of 1 μM and fluorescence was measured using an Envision Reader (PerkinElmer) with the wavelength excitation setting of 355 nm and the wavelength emission setting of 460 nm. The number of the compound corresponds to the number of the Example in the experimental section.
With `Cc1nc(N2CC3CC(C2)O3)ccc1Cn1cc(C(=O)NCc2cc(Cl)ccc2-n2cnnn2)cn1` [Example 65, N-{[5-chloro-2-(1H-1,2,3,4-tetrazol-1-yl)phenyl]methyl}-1-[(2-methyl-6-{6-oxa-3-azabicyclo[3.1.1]heptan-3-yl}pyridin-3-yl)methyl]-1H-pyrazole-4-carboxamide], the IC50 (usually the concentration needed to halve the response being measured) stood at 0.01 µM. For the molecule `Cc1nc(N2CCC3(C2)CC3(F)F)ccc1Cn1cc(C(=O)NCc2cc(Cl)ccc2-n2cnnn2)cn1` (stereo not shown) [Example 66, N-{[5-chloro-2-(1H-1,2,3,4-tetrazol-1-yl)phenyl]methyl}-1-[(6-{1,1-difluoro-5-azaspiro[2.4]heptan-5-yl}-2-methylpyridin-3-yl)methyl]-1H-pyrazole-4-carboxamide], the half-inhibitory concentration (IC50) was found to be 0.009 µM.

The molecule `Cc1nc(N2CC3CC2C3)ccc1Cn1cc(C(=O)NCc2cc(Cl)ccc2-n2cnnn2)cn1` [Example 67, 1-[(6-{2-azabicyclo[2.1.1]hexan-2-yl}-2-methylpyridin-3-yl)methyl]-N-{[5-chloro-2-(1H-1,2,3,4-tetrazol-1-yl)phenyl]methyl}-1H-pyrazole-4-carboxamide] came in with a half-inhibitory concentration (IC50) of 0.01 µM.

In turn, `Cc1nc(N2CC3CC(C2)C3O)ccc1Cn1cc(C(=O)NCc2cc(Cl)ccc2-n2cnnn2)cn1` (stereo not shown) [Example 68, N-{[5-chloro-2-(1H-1,2,3,4-tetrazol-1-yl)phenyl]methyl}-1-[(6-{6-hydroxy-3-azabicyclo[3.1.1]heptan-3-yl}-2-methylpyridin-3-yl)methyl]-1H-pyrazole-4-carboxamide] showed a 50% inhibitory concentration (IC50) of 0.004 µM. Turning to `Cc1nc(N2CC3(CCCO3)C2)ccc1Cn1cc(C(=O)NCc2cc(Cl)ccc2-n2cnnn2)cn1` [Example 69, N-{[5-chloro-2-(1H-1,2,3,4-tetrazol-1-yl)phenyl]methyl}-1-[(2-methyl-6-{5-oxa-2-azaspiro[3.4]octan-2-yl}pyridin-3-yl)methyl]-1H-pyrazole-4-carboxamide], the IC50 amounted to 0.005 µM. Take `Cc1nc(N2CC3OCC(N)C3C2)ccc1Cn1cc(C(=O)NCc2cc(Cl)ccc2-n2cnnn2)cn1` (stereo not shown) [Example 70, 1-[(6-{3-amino-hexahydro-2H-furo[2,3-c]pyrrol-5-yl}-2-methylpyridin-3-yl)methyl]-N-{[5-chloro-2-(1H-1,2,3,4-tetrazol-1-yl)phenyl]methyl}-1H-pyrazole-4-carboxamide]: 0.845 µM corresponded to half-maximal inhibition (IC50). Turning to `Cc1nc(N2CCC3(CCOC3)C2)ccc1Cn1cc(C(=O)NCc2cc(Cl)ccc2-n2cnnn2)cn1` (stereo not shown) [Example 71, N-{[5-chloro-2-(1H-1,2,3,4-tetrazol-1-yl)phenyl]methyl}-1-[(2-methyl-6-{2-oxa-7-azaspiro[4.4]nonan-7-yl}pyridin-3-yl)methyl]-1H-pyrazole-4-carboxamide], the IC50 is 0.008 µM. In turn, `Cc1nc(N2CCCC3(CC3)C2)ccc1Cn1cc(C(=O)NCc2cc(Cl)ccc2-n2cnnn2)cn1` [Example 72, 1-[(6-{5-azaspiro[2.5]octan-5-yl}-2-methylpyridin-3-yl)methyl]-N-{[5-chloro-2-(1H-1,2,3,4-tetrazol-1-yl)phenyl]methyl}-1H-pyrazole-4-carboxamide] returned an IC50 of 0.074 µM. For `Cc1nc(N2CC3CCCC3C2)ccc1Cn1cc(C(=O)NCc2cc(Cl)ccc2-n2cnnn2)cn1` (stereo not shown) [Example 73, N-{[5-chloro-2-(1H-1,2,3,4-tetrazol-1-yl)phenyl]methyl}-1-[(2-methyl-6-{octahydrocyclopenta[c]pyrrol-2-yl}pyridin-3-yl)methyl]-1H-pyrazole-4-carboxamide], the 50% inhibitory concentration (IC50) amounted to 0.009 µM.

`Cc1nc(N2CC3(CNC(=O)C3)C2)ccc1Cn1cc(C(=O)NCc2cc(Cl)ccc2-n2cnnn2)cn1` [Example 74, N-{[5-chloro-2-(1H-1,2,3,4-tetrazol-1-yl)phenyl]methyl}-1-[(2-methyl-6-{7-oxo-2,6-diazaspiro[3.4]octan-2-yl}pyridin-3-yl)methyl]-1H-pyrazole-4-carboxamide] gave an IC50 of 0.232 µM.

As to `Cc1nc(N2CC3COCC(C3)C2)ccc1Cn1cc(C(=O)NCc2cc(Cl)ccc2-n2cnnn2)cn1` [Example 75, N-{[5-chloro-2-(1H-1,2,3,4-tetrazol-1-yl)phenyl]methyl}-1-[(2-methyl-6-{3-oxa-7-azabicyclo[3.3.1]nonan-7-yl}pyridin-3-yl)methyl]-1H-pyrazole-4-carboxamide], the IC50 was 0.007 µM. Take `Cc1nc(N2CCC3(CCCO3)C2)ccc1Cn1cc(C(=O)NCc2cc(Cl)ccc2-n2cnnn2)cn1` (stereo not shown) [Example 76, N-{[5-chloro-2-(1H-1,2,3,4-tetrazol-1-yl)phenyl]methyl}-1-[(2-methyl-6-{1-oxa-7-azaspiro[4.4]nonan-7-yl}pyridin-3-yl)methyl]-1H-pyrazole-4-carboxamide]: 0.003 µM corresponded to half-maximal inhibition (IC50). In turn, `Cc1nc(N2CC3CC2CO3)ccc1Cn1cc(C(=O)NCc2cc(Cl)ccc2-n2cnnn2)cn1` (stereo not shown) [Example 77, N-{[5-chloro-2-(1H-1,2,3,4-tetrazol-1-yl)phenyl]methyl}-1-[(2-methyl-6-{2-oxa-5-azabicyclo[2.2.1]heptan-5-yl}pyridin-3-yl)methyl]-1H-pyrazole-4-carboxamide] came in with an IC50 of 0.049 µM. Regarding `Cc1nc(N2CC3(CCOCC3)C2)ccc1Cn1cc(C(=O)NCc2cc(Cl)ccc2-n2cnnn2)cn1` [Example 78, N-{[5-chloro-2-(1H-1,2,3,4-tetrazol-1-yl)phenyl]methyl}-1-[(2-methyl-6-{7-oxa-2-azaspiro[3.5]nonan-2-yl}pyridin-3-yl)methyl]-1H-pyrazole-4-carboxamide], the IC50 was found to be 0.019 µM. In turn, `Cc1nc(N2CC3(C2)CN(C(C)C)C3)ccc1Cn1cc(C(=O)NCc2cc(Cl)ccc2-n2cnnn2)cn1` [Example 79, N-{[5-chloro-2-(1H-1,2,3,4-tetrazol-1-yl)phenyl]methyl}-1-({2-methyl-6-[6-(propan-2-yl)-2,6-diazaspiro[3.3]heptan-2-yl]pyridin-3-yl}methyl)-1H-pyrazole-4-carboxamide] registered an IC50 of 1.06 µM. Molecule `CO[C@H]1[C@@H]2CC[C@H]1CN(c1ccc(Cn3cc(C(=O)NCc4cc(Cl)ccc4-n4cnnn4)cn3)c(C)n1)C2` [Example 80] showed an IC50 of 0.022 µM. `Cc1nc(N2CC3(CCOC3)C2)ccc1Cn1cc(C(=O)NCc2cc(Cl)ccc2-n2cnnn2)cn1` [Example 81, N-{[5-chloro-2-(1H-1,2,3,4-tetrazol-1-yl)phenyl]methyl}-1-[(2-methyl-6-{6-oxa-2-azaspiro[3.4]octan-2-yl}pyridin-3-yl)methyl]-1H-pyrazole-4-carboxamide] had an IC50 of 0.022 µM. `Cc1nc(N2CCC3CC32)ccc1Cn1cc(C(=O)NCc2cc(Cl)ccc2-n2cnnn2)cn1` (stereo not shown) [Example 82, 1-[(6-{2-azabicyclo[3.1.0]hexan-2-yl}-2-methylpyridin-3-yl)methyl]-N-{[5-chloro-2-(1H-1,2,3,4-tetrazol-1-yl)phenyl]methyl}-1H-pyrazole-4-carboxamide] returned an IC50 of 0.007 µM.

Turning to `Cc1nc(N2CC3(CN(C)C3)C2)ccc1Cn1cc(C(=O)NCc2cc(Cl)ccc2-n2cnnn2)cn1` [Example 83, N-{[5-chloro-2-(1H-1,2,3,4-tetrazol-1-yl)phenyl]methyl}-1-[(2-methyl-6-{6-methyl-2,6-diazaspiro[3.3]heptan-2-yl}pyridin-3-yl)methyl]-1H-pyrazole-4-carboxamide], the half-inhibitory concentration (IC50) came to 1.09 µM. As to `COC1C2CC1CN(c1ccc(Cn3cc(C(=O)NCc4cc(Cl)ccc4-n4cnnn4)cn3)c(C)n1)C2` (stereo not shown) [Example 84, N-{[5-chloro-2-(1H-1,2,3,4-tetrazol-1-yl)phenyl]methyl}-1-[(6-{6-methoxy-3-azabicyclo[3.1.1]heptan-3-yl}-2-methylpyridin-3-yl)methyl]-1H-pyrazole-4-carboxamide], the 50% inhibitory concentration (IC50) was 0.004 µM. Next, `Cc1nc(N2CCC3CC3C2)ccc1Cn1cc(C(=O)NCc2cc(Cl)ccc2-n2cnnn2)cn1` (stereo not shown) [Example 85, 1-[(6-{3-azabicyclo[4.1.0]heptan-3-yl}-2-methylpyridin-3-yl)methyl]-N-{[5-chloro-2-(1H-1,2,3,4-tetrazol-1-yl)phenyl]methyl}-1H-pyrazole-4-carboxamide]: 0.003 µM; `Cc1nc(N2C[C@@H]3[C@@H](C)[C@@H]3C2)ccc1Cn1cc(C(=O)NCc2cc(Cl)ccc2-n2cnnn2)cn1` [Example 86]: 0.007 µM.

With `Cc1nc(N2C[C@@H]3C[C@]3(N)C2)ccc1Cn1cc(C(=O)NCc2cc(Cl)ccc2-n2cnnn2)cn1` [Example 88, 1-({6-[(1R,5S)-1-amino-3-azabicyclo[3.1.0]hexan-3-yl]-2-methylpyridin-3-yl}methyl)-N-{[5-chloro-2-(1H-1,2,3,4-tetrazol-1-yl)phenyl]methyl}-1H-pyrazole-4-carboxamide], the IC50 was determined as 0.127 µM. The molecule `Cc1nc(N2CC[C@@]3(N)C[C@H]3C2)ccc1Cn1cc(C(=O)NCc2cc(Cl)ccc2-n2cnnn2)cn1` [Example 89, 1-({6-[(1S,6S)-6-amino-3-azabicyclo[4.1.0]heptan-3-yl]-2-methylpyridin-3-yl}methyl)-N-{[5-chloro-2-(1H-1,2,3,4-tetrazol-1-yl)phenyl]methyl}-1H-pyrazole-4-carboxamide] came in with a half-maximal inhibitory concentration (IC50) of 0.061 µM.

In turn, `Cc1nc(N2CC3CCC(C2)N3)ccc1Cn1cc(C(=O)NCc2cc(Cl)ccc2-n2cnnn2)cn1` [Example 90, N-{[5-chloro-2-(1H-1,2,3,4-tetrazol-1-yl)phenyl]methyl}-1-[(6-{3,8-diazabicyclo[3.2.1]octan-3-yl}-2-methylpyridin-3-yl)methyl]-1H-pyrazole-4-carboxamide] registered an IC50 of 0.119 µM.
